Data as given in ChEMBL document CHEMBL1759905, “Nonsteroidal 2,3-dihydroquinoline glucocorticoid receptor agonists with reduced PEPCK activation” (Bioorg Med Chem Lett, 2011).

Legend:
[1] = target: T1, Glucocorticoid receptor (Homo sapiens, UniProt P04150); experiment: Transrepression activity at glucocorticoid receptor in human NHDF cells assessed as inhibition of IL-1beta-stimulated AP1 dependent IL-6 repression by ELISA; format: cell-based
T1 sequence (P04150 whole entry): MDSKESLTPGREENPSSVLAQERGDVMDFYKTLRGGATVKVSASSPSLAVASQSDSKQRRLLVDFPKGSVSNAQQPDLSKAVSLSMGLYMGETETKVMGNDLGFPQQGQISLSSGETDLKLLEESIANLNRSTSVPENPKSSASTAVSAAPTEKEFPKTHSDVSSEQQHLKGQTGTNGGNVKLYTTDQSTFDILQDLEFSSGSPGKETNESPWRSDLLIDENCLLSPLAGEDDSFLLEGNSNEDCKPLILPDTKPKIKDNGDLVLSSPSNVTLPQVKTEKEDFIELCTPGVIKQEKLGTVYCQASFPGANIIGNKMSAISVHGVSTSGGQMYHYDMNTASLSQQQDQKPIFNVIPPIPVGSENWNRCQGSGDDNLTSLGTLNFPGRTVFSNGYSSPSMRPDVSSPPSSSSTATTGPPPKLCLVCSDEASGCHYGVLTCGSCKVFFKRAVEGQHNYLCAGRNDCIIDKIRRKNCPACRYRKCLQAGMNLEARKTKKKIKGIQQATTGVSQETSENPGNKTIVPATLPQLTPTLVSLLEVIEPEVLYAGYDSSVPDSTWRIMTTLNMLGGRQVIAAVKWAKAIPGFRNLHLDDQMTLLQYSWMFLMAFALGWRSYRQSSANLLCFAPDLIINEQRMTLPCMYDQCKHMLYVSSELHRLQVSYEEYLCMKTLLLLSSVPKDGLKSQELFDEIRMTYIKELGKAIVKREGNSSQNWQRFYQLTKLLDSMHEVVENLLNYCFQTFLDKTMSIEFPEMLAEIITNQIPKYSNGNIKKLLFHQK

[2] = target: T2, Progesterone receptor (Homo sapiens, UniProt P06401); experiment: Binding affinity to progesterone receptor
T2 sequence (P06401 whole entry): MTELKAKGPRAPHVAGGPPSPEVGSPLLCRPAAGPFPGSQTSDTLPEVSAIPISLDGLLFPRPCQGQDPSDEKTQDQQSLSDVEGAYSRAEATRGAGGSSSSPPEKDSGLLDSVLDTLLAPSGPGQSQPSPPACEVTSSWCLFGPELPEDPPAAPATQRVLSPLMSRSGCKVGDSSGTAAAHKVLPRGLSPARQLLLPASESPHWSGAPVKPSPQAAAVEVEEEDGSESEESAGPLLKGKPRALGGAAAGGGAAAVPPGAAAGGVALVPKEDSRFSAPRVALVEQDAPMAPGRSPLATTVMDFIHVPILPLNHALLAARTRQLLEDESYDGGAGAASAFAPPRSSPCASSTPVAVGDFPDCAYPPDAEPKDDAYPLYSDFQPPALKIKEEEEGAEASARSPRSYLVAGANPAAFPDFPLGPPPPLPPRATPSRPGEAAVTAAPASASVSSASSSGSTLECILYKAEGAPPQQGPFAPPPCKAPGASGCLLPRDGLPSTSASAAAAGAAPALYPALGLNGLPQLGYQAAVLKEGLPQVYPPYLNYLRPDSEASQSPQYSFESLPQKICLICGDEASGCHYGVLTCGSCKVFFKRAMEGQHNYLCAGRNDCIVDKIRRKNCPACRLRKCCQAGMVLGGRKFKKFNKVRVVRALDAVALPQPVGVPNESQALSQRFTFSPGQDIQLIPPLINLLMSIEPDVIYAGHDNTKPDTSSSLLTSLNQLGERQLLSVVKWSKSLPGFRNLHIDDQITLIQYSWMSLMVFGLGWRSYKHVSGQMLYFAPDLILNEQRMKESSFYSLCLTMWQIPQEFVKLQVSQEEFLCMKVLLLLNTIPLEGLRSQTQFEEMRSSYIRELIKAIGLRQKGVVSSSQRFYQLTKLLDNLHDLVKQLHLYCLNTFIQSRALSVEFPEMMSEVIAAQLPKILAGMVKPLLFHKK

[3] = target: T3, Glucocorticoid receptor (Homo sapiens) (UniProt P04150); experiment: Agonist activity at glucocorticoid receptor in human HepG2 cells co-transfected with PEPCK assessed as GRE activation by luciferase reporter gene assay relative to Dexamethasone; format: functional, cell-based
T3 sequence (whole entry): T1 sequence (P04150 whole entry)

[4] = target: T1, Glucocorticoid receptor; experiment: Agonist activity at glucocorticoid receptor in human HepG2 cells co-transfected with PEPCK assessed as GRE activation by luciferase reporter gene assay; format: functional, cell-based
[5] = target: T1, Glucocorticoid receptor; experiment: Displacement of radiolabeled Dexamethasone from glucocorticoid receptor expressed in baculovirus
[6] = target: T4, Mineralocorticoid receptor (Homo sapiens, UniProt P08235); experiment: Binding affinity to mineralocorticoid receptor
T4 sequence (P08235 whole entry): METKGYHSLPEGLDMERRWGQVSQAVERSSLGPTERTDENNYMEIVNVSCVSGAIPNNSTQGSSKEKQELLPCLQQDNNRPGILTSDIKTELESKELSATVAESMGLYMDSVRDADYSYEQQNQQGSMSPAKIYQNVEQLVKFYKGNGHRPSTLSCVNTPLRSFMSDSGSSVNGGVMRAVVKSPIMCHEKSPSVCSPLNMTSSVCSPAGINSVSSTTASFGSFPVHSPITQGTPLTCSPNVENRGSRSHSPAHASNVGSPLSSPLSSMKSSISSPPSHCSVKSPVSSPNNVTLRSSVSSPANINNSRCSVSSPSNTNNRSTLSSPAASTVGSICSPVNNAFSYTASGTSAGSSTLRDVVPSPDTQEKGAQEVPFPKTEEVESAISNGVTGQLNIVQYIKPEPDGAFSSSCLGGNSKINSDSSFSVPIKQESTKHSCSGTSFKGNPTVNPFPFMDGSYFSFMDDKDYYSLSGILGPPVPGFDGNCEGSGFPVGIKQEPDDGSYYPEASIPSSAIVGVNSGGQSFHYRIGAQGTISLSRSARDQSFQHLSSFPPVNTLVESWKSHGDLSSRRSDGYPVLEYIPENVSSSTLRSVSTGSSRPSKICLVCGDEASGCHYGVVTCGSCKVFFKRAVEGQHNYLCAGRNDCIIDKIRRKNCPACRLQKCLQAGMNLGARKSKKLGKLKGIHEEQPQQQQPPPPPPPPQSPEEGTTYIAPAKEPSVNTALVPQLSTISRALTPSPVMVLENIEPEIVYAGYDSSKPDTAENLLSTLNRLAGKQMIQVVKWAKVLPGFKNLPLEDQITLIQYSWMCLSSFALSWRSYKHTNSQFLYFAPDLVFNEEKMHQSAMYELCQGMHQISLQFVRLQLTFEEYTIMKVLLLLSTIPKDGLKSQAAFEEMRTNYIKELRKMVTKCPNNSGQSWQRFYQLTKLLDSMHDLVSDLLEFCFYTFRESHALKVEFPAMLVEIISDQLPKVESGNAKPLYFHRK

[7] = target: T3, Glucocorticoid receptor (Homo sapiens); experiment: Transrepression activity at glucocorticoid receptor in human HepG2 cells assessed as inhibition of TNFalpha/IL1beta-stimulated NFkappaB-dependent E-selectin repression by luciferase reporter gene assay relative to Dexamethasone; format: cell-based; set-up: scale not given: the % may be the effect or the level left

| Compound | IC50 [1] [nM] | Ki [2] [nM] | Activity [3] [%] | EC50 [4] [nM] | Ki [5] [nM] | Ki [6] [nM] | Activity [7] [%] |
| --- | --- | --- | --- | --- | --- | --- | --- |
| Cc1c[nH]c2c(-c3c(F)cc4c(c3F)/C(=N/OC(C)(C)CO)CC(C)(C)N4)cccc12 | 65 | 950 | 22 | 350 | 0.8 | 2700 | 91 |
| Cc1c[nH]c2c(-c3c(F)cc4c(c3F)/C(=N/OC(C)C)CC(C)(C)N4)cccc12 | 11 | 380 | 35 | 250 | 2.7 | 2800 | 90 |

The remaining compounds from weak to strong by IC50 [1], led by results:

| IC50 [1] [nM] | Ki [2] [nM] | Activity [3] [%] | EC50 [4] [nM] | Ki [5] [nM] | Ki [6] [nM] | Activity [7] [%] | Compound |
| --- | --- | --- | --- | --- | --- | --- | --- |
| 19 | 570 | 27 | 67 | 2 | 1040 | 94 | CC1(C)C/C(=N\OC(C)(C)C)c2c(cc(F)c(-c3cccc4c(Cl)c[nH]c34)c2F)N1 |
| 17 | 3800 | 79 | 560 | 3.8 | 1700 | 96 | CO/N=C1/c2c(cc(F)c(-c3cccc4c(C)c[nH]c34)c2F)NC(C)(C)C1O (racemic) |
| 13 | 220 | 28 | 70 | 2.2 | 1600 | 91 | Cc1c[nH]c2c(-c3c(F)cc4c(c3F)/C(=N/OC(C)(C)C)CC(C)(C)N4)cccc12 |
